# Measured values as given in ChEMBL document CHEMBL1137297, “Synthesis and pharmacological evaluation of novel octahydro-1H-pyrido[1,2-a]pyrazine as mu-opioid receptor antagonists” (J Med Chem, 2006).
# Target: T1, Delta-type opioid receptor (Homo sapiens, UniProt P41143)
# Experiment: Inhibition of [3H]diprenorphine binding to human cloned delta opioid receptor expressed in CHO cells at 10 uM
# Type: cell-based
# T1 sequence (P41143 whole entry): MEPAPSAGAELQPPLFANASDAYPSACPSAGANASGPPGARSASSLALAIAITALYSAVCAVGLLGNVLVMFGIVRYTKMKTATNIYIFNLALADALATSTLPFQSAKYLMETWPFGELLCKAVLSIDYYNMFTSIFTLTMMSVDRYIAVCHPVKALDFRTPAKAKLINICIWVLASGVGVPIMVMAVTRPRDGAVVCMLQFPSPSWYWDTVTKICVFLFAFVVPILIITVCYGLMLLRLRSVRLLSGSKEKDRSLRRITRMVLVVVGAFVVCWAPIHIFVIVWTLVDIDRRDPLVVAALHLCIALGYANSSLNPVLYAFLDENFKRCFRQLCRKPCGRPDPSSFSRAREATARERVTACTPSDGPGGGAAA
row,Structure (SMILES),inhibition
1,COC(=O)c1cccc([C@]2(C)C[C@@H]3CN(Cc4ccccc4)[C@@H](c4ccccc4)CN3C[C@@H]2C)c1,39%
2,C[C@H]1CN2CCN(S(C)(=O)=O)C[C@H]2C[C@@]1(C)c1cccc(O)c1,5%
3,C[C@H]1CN2C[C@H](c3ccccc3)N(Cc3ccccc3)C[C@H]2C[C@@]1(C)c1ccccc1,26%
4,C[C@H]1CN2CCN(Cc3ccc4ccccc4c3)C[C@H]2C[C@@]1(C)c1cccc(O)c1,49%
5,C[C@H]1CN2CCN(Cc3cccc(Oc4ccccc4)c3)C[C@H]2C[C@@]1(C)c1cccc(O)c1,55%
6,C[C@H]1CN2CCN(Cc3cccc(OCc4ccccc4)c3)C[C@H]2C[C@@]1(C)c1cccc(O)c1,43%
7,COC(=O)c1cccc(CN2CCN3C[C@H](C)[C@](C)(c4cccc(O)c4)C[C@@H]3C2)c1,43%
8,CC(=O)N1CCN2C[C@H](C)[C@](C)(c3cccc(O)c3)C[C@@H]2C1,47%
9,CC(=O)N1C[C@H]2C[C@@](C)(c3cccc(O)c3)[C@@H](C)CN2C[C@@H]1c1ccccc1,57%
10,C[C@H]1CN2CCN(Cc3ccnc4ccccc34)C[C@H]2C[C@@]1(C)c1cccc(O)c1,28%
11,C[C@H]1CN2CCN(Cc3cccc4ccccc34)C[C@H]2C[C@@]1(C)c1cccc(O)c1,60%
12,CC(C)[C@H]1CN2C[C@H](C)[C@](C)(c3cccc(O)c3)C[C@@H]2CN1,15%
13,C[C@H]1CN2CCN(Cc3ccc(N(C)C)cc3)C[C@H]2C[C@@]1(C)c1cccc(O)c1,26%

# Target: T1, Delta-type opioid receptor
# Experiment: Antagonist activity assessed as inhibition of BW373U86-stimulated [35S]GTP-gamma-S binding to human delta opioid receptor expressed in CHO cells
# Type: functional, cell-based
row,Structure (SMILES),IC50
1,C[C@H]1CN2CCN(Cc3cccs3)C[C@H]2C[C@@]1(C)c1cccc(O)c1,340 nM
2,C[C@H]1CN2C[C@H](Cc3ccccc3)NC[C@H]2C[C@@]1(C)c1cccc(O)c1,33 nM
3,C[C@H]1CN2C[C@H](c3ccccc3)N(Cc3ccccc3)C[C@H]2C[C@@]1(C)c1cccc(O)c1,1300 nM
4,C[C@H]1CN2C[C@H](c3ccccc3)N(C)C[C@H]2C[C@@]1(C)c1cccc(O)c1,580 nM
5,C[C@H]1CN2C[C@H](c3ccccc3)NC[C@H]2C[C@@]1(C)c1cccc(C(N)=O)c1,110 nM
6,C[C@H]1CN2C[C@H](c3ccccc3)CC[C@H]2C[C@@]1(C)c1cccc(O)c1,51 nM
7,C[C@H]1CN2CCN(C(=O)c3ccccc3)C[C@H]2C[C@@]1(C)c1cccc(O)c1,14 nM
8,C[C@H]1CN2C[C@H](C3CCCCC3)NC[C@H]2C[C@@]1(C)c1cccc(O)c1,28 nM
9,C[C@H]1CN2CCN(Cc3ccccc3O)C[C@H]2C[C@@]1(C)c1cccc(O)c1,570 nM
10,C[C@H]1CN2C[C@H](c3ccccc3)NC[C@H]2C[C@@]1(C)c1cccc(O)c1,98 nM
11,C[C@H]1CN2CCN(CC3CCCCC3)C[C@H]2C[C@@]1(C)c1cccc(O)c1,85 nM
12,C[C@H]1CN2CCN(Cc3ccccc3)C[C@H]2C[C@@]1(C)c1cccc(O)c1,150 nM

# Target: T2, Mu-type opioid receptor (Homo sapiens, UniProt P35372)
# T2 sequence (P35372 whole entry): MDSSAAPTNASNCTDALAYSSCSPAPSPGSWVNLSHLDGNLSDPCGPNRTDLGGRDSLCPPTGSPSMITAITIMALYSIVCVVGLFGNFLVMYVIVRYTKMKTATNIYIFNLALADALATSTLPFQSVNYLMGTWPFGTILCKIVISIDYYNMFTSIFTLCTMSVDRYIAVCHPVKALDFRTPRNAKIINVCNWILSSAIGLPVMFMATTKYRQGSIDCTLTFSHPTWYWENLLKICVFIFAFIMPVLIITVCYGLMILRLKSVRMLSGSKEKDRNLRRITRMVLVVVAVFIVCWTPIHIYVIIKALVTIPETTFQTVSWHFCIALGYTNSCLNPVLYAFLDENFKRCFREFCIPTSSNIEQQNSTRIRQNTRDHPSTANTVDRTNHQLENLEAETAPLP
# Experiment: Antagonist activity assessed as inhibition of loperamide-stimulated [35S]GTPgammaS binding to human mu opioid receptor expressed in CHO cells
# Type: functional, cell-based
row,Structure (SMILES),IC50
1,C[C@H]1CN2CCN(Cc3cccs3)C[C@H]2C[C@@]1(C)c1cccc(O)c1,0.63 nM
2,C[C@H]1CN2C[C@H](Cc3ccccc3)NC[C@H]2C[C@@]1(C)c1cccc(O)c1,2.8 nM
3,C[C@H]1CN2C[C@H](c3ccccc3)N(Cc3ccccc3)C[C@H]2C[C@@]1(C)c1cccc(O)c1,40 nM
4,C[C@H]1CN2C[C@H](c3ccccc3)NC[C@H]2C[C@@]1(C)c1cccc(C(N)=O)c1,1.5 nM
5,C[C@H]1CN2CCN(Cc3ccc4ccccc4c3)C[C@H]2C[C@@]1(C)c1cccc(O)c1,74 nM
6,C[C@H]1CN2CCN(C(=O)c3ccccc3)C[C@H]2C[C@@]1(C)c1cccc(O)c1,2.1 nM
7,C[C@H]1CN2C[C@H](C3CCCCC3)NC[C@H]2C[C@@]1(C)c1cccc(O)c1,1.3 nM
8,C[C@H]1CN2CCN(Cc3ccccc3O)C[C@H]2C[C@@]1(C)c1cccc(O)c1,1.6 nM
9,C[C@H]1CN2CCN(Cc3cccc(Oc4ccccc4)c3)C[C@H]2C[C@@]1(C)c1cccc(O)c1,9.7 nM
10,C[C@H]1CN2C[C@H](c3ccccc3)NC[C@H]2C[C@@]1(C)c1cccc(O)c1,1.1 nM
11,C[C@H]1CN2CCN(CC3CCCCC3)C[C@H]2C[C@@]1(C)c1cccc(O)c1,1.1 nM
12,C[C@H]1CN2CCN(Cc3cccc(OCc4ccccc4)c3)C[C@H]2C[C@@]1(C)c1cccc(O)c1,22 nM
13,COC(=O)c1cccc(CN2CCN3C[C@H](C)[C@](C)(c4cccc(O)c4)C[C@@H]3C2)c1,6.9 nM
14,C[C@H]1CN2CCN(Cc3ccccc3)C[C@H]2C[C@@]1(C)c1cccc(O)c1,0.73 nM
15,CC(=O)N1C[C@H]2C[C@@](C)(c3cccc(O)c3)[C@@H](C)CN2C[C@@H]1c1ccccc1,220 nM
16,C[C@H]1CN2CCN(Cc3ccnc4ccccc34)C[C@H]2C[C@@]1(C)c1cccc(O)c1,80 nM
17,C[C@H]1CN2CCN(Cc3cccc4ccccc34)C[C@H]2C[C@@]1(C)c1cccc(O)c1,16 nM
18,CC(C)[C@H]1CN2C[C@H](C)[C@](C)(c3cccc(O)c3)C[C@@H]2CN1,66 nM
19,C[C@H]1CN2CCN(Cc3ccc(N(C)C)cc3)C[C@H]2C[C@@]1(C)c1cccc(O)c1,190 nM

# Target: T3, Kappa-type opioid receptor (Homo sapiens, UniProt P41145)
# T3 sequence (P41145 whole entry): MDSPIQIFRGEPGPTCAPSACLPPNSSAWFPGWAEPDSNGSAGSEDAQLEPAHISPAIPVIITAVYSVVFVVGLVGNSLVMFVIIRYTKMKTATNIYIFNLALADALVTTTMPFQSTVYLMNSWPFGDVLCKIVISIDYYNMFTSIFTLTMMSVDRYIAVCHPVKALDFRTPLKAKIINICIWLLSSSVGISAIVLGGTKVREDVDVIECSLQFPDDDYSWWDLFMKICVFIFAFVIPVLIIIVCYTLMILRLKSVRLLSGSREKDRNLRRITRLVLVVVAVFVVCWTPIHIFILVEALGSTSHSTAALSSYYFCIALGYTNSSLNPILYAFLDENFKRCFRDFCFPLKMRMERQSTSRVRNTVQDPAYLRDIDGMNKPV
# Experiment: Antagonist activity assessed as inhibition of U50488-stimulated [35S]GTP-gamma-S binding to human kappa opioid receptor expressed in CHO cells
# Type: functional, cell-based
row,Structure (SMILES),IC50
1,C[C@H]1CN2CCN(Cc3cccs3)C[C@H]2C[C@@]1(C)c1cccc(O)c1,6.6 nM
2,C[C@H]1CN2C[C@H](Cc3ccccc3)NC[C@H]2C[C@@]1(C)c1cccc(O)c1,16 nM
3,C[C@H]1CN2C[C@H](c3ccccc3)N(Cc3ccccc3)C[C@H]2C[C@@]1(C)c1cccc(O)c1,99 nM
4,C[C@H]1CN2C[C@H](c3ccccc3)N(C)C[C@H]2C[C@@]1(C)c1cccc(O)c1,2.4 nM
5,C[C@H]1CN2C[C@H](c3ccccc3)NC[C@H]2C[C@@]1(C)c1cccc(C(N)=O)c1,2.3 nM
6,C[C@H]1CN2C[C@H](c3ccccc3)CC[C@H]2C[C@@]1(C)c1cccc(O)c1,3.2 nM
7,C[C@H]1CN2CCN(C(=O)c3ccccc3)C[C@H]2C[C@@]1(C)c1cccc(O)c1,50 nM
8,C[C@H]1CN2C[C@H](C3CCCCC3)NC[C@H]2C[C@@]1(C)c1cccc(O)c1,1.2 nM
9,C[C@H]1CN2CCN(Cc3ccccc3O)C[C@H]2C[C@@]1(C)c1cccc(O)c1,9.4 nM
10,C[C@H]1CN2C[C@H](c3ccccc3)NC[C@H]2C[C@@]1(C)c1cccc(O)c1,3.2 nM
11,C[C@H]1CN2CCN(CC3CCCCC3)C[C@H]2C[C@@]1(C)c1cccc(O)c1,36 nM
12,C[C@H]1CN2CCN(Cc3ccccc3)C[C@H]2C[C@@]1(C)c1cccc(O)c1,8.4 nM

# Target: T2, Mu-type opioid receptor
# Experiment: Displacement of [3H]diprenorphine from human cloned mu opioid receptor expressed in CHO cells
# Type: cell-based
row,Structure (SMILES),Ki
1,C[C@H]1CN2CCN(Cc3cccs3)C[C@H]2C[C@@]1(C)c1cccc(O)c1,1.4 nM
2,C[C@H]1CN2C[C@H](c3ccccc3)N(Cc3ccccc3)C[C@H]2C[C@@]1(C)c1cccc(O)c1,4.7 nM
3,C[C@H]1CN2C[C@H](c3ccccc3)NC[C@H]2C[C@@]1(C)c1cccc(C(N)=O)c1,1.8 nM
4,C[C@H]1CN2CCN(Cc3ccc4ccccc4c3)C[C@H]2C[C@@]1(C)c1cccc(O)c1,90 nM
5,C[C@H]1CN2C[C@H](C3CCCCC3)NC[C@H]2C[C@@]1(C)c1cccc(O)c1,2.7 nM
6,C[C@H]1CN2CCN(Cc3ccccc3O)C[C@H]2C[C@@]1(C)c1cccc(O)c1,1.8 nM
7,C[C@H]1CN2CCN(Cc3cccc(Oc4ccccc4)c3)C[C@H]2C[C@@]1(C)c1cccc(O)c1,21 nM
8,C[C@H]1CN2CCN(CC3CCCCC3)C[C@H]2C[C@@]1(C)c1cccc(O)c1,1.1 nM
9,C[C@H]1CN2CCN(Cc3cccc(OCc4ccccc4)c3)C[C@H]2C[C@@]1(C)c1cccc(O)c1,13 nM
10,COC(=O)c1cccc(CN2CCN3C[C@H](C)[C@](C)(c4cccc(O)c4)C[C@@H]3C2)c1,11 nM
11,C[C@H]1CN2CCN(Cc3ccccc3)C[C@H]2C[C@@]1(C)c1cccc(O)c1,1.2 nM
12,CC(=O)N1CCN2C[C@H](C)[C@](C)(c3cccc(O)c3)C[C@@H]2C1,520 nM
13,CC(=O)N1C[C@H]2C[C@@](C)(c3cccc(O)c3)[C@@H](C)CN2C[C@@H]1c1ccccc1,94 nM
14,C[C@H]1CN2CCN(Cc3ccnc4ccccc34)C[C@H]2C[C@@]1(C)c1cccc(O)c1,88 nM
15,C[C@H]1CN2CCN(Cc3cccc4ccccc34)C[C@H]2C[C@@]1(C)c1cccc(O)c1,3.5 nM
16,CC(C)[C@H]1CN2C[C@H](C)[C@](C)(c3cccc(O)c3)C[C@@H]2CN1,380 nM
17,C[C@H]1CN2CCN(Cc3ccc(N(C)C)cc3)C[C@H]2C[C@@]1(C)c1cccc(O)c1,750 nM

# Target: T1, Delta-type opioid receptor
# Experiment: Displacement of [3H]diprenorphine from human cloned delta opioid receptor expressed in CHO cells
# Type: cell-based
row,Structure (SMILES),Ki
1,C[C@H]1CN2CCN(Cc3cccs3)C[C@H]2C[C@@]1(C)c1cccc(O)c1,260 nM
2,C[C@H]1CN2C[C@H](c3ccccc3)N(Cc3ccccc3)C[C@H]2C[C@@]1(C)c1cccc(O)c1,340 nM
3,C[C@H]1CN2C[C@H](c3ccccc3)N(C)C[C@H]2C[C@@]1(C)c1cccc(O)c1,2300 nM
4,C[C@H]1CN2C[C@H](c3ccccc3)NC[C@H]2C[C@@]1(C)c1cccc(C(N)=O)c1,60 nM
5,C[C@H]1CN2C[C@H](C3CCCCC3)NC[C@H]2C[C@@]1(C)c1cccc(O)c1,68 nM
6,C[C@H]1CN2CCN(Cc3ccccc3O)C[C@H]2C[C@@]1(C)c1cccc(O)c1,300 nM
7,C[C@H]1CN2CCN(CC3CCCCC3)C[C@H]2C[C@@]1(C)c1cccc(O)c1,65 nM

# Target: T3, Kappa-type opioid receptor
# Experiment: Displacement of [3H]diprenorphine from human cloned kappa opioid receptor expressed in CHO cells
# Type: cell-based
row,Structure (SMILES),Ki
1,C[C@H]1CN2CCN(Cc3cccs3)C[C@H]2C[C@@]1(C)c1cccc(O)c1,37 nM
2,C[C@H]1CN2C[C@H](Cc3ccccc3)NC[C@H]2C[C@@]1(C)c1cccc(O)c1,86 nM
3,C[C@H]1CN2C[C@H](c3ccccc3)N(Cc3ccccc3)C[C@H]2C[C@@]1(C)c1cccc(O)c1,120 nM
4,C[C@H]1CN2C[C@H](c3ccccc3)N(C)C[C@H]2C[C@@]1(C)c1cccc(O)c1,13 nM
5,C[C@H]1CN2C[C@H](c3ccccc3)NC[C@H]2C[C@@]1(C)c1cccc(C(N)=O)c1,11 nM
6,C[C@H]1CN2CCN(Cc3ccc4ccccc4c3)C[C@H]2C[C@@]1(C)c1cccc(O)c1,980 nM
7,C[C@H]1CN2CCN(C(=O)c3ccccc3)C[C@H]2C[C@@]1(C)c1cccc(O)c1,180 nM
8,C[C@H]1CN2C[C@H](C3CCCCC3)NC[C@H]2C[C@@]1(C)c1cccc(O)c1,16 nM
9,C[C@H]1CN2CCN(Cc3ccccc3O)C[C@H]2C[C@@]1(C)c1cccc(O)c1,76 nM
10,C[C@H]1CN2CCN(Cc3cccc(Oc4ccccc4)c3)C[C@H]2C[C@@]1(C)c1cccc(O)c1,24 nM
11,C[C@H]1CN2CCN(CC3CCCCC3)C[C@H]2C[C@@]1(C)c1cccc(O)c1,84 nM
12,C[C@H]1CN2CCN(Cc3cccc(OCc4ccccc4)c3)C[C@H]2C[C@@]1(C)c1cccc(O)c1,33 nM
13,COC(=O)c1cccc(CN2CCN3C[C@H](C)[C@](C)(c4cccc(O)c4)C[C@@H]3C2)c1,140 nM
14,C[C@H]1CN2CCN(Cc3ccccc3)C[C@H]2C[C@@]1(C)c1cccc(O)c1,43 nM
15,CC(=O)N1C[C@H]2C[C@@](C)(c3cccc(O)c3)[C@@H](C)CN2C[C@@H]1c1ccccc1,620 nM
16,C[C@H]1CN2CCN(Cc3cccc4ccccc34)C[C@H]2C[C@@]1(C)c1cccc(O)c1,230 nM
17,CC(C)[C@H]1CN2C[C@H](C)[C@](C)(c3cccc(O)c3)C[C@@H]2CN1,57 nM

# Target: T2, Mu-type opioid receptor
# Experiment: Inhibition of [3H]diprenorphine binding to human cloned mu opioid receptor expressed in CHO cells at 10 uM
# Type: cell-based
row,Structure (SMILES),inhibition
1,COC(=O)c1cccc([C@]2(C)C[C@@H]3CN(Cc4ccccc4)[C@@H](c4ccccc4)CN3C[C@@H]2C)c1,24%
2,C[C@H]1CN2CCN(S(C)(=O)=O)C[C@H]2C[C@@]1(C)c1cccc(O)c1,45%

# Target: T3, Kappa-type opioid receptor
# Experiment: Inhibition of [3H]diprenorphine binding to human cloned kappa opioid receptor expressed in CHO cells at 10 uM
# Type: cell-based
row,Structure (SMILES),inhibition
1,COC(=O)c1cccc([C@]2(C)C[C@@H]3CN(Cc4ccccc4)[C@@H](c4ccccc4)CN3C[C@@H]2C)c1,6%
2,C[C@H]1CN2CCN(S(C)(=O)=O)C[C@H]2C[C@@]1(C)c1cccc(O)c1,14%
3,C[C@H]1CN2C[C@H](c3ccccc3)N(Cc3ccccc3)C[C@H]2C[C@@]1(C)c1ccccc1,11%
4,CC(=O)N1CCN2C[C@H](C)[C@](C)(c3cccc(O)c3)C[C@@H]2C1,36%
5,C[C@H]1CN2CCN(Cc3ccnc4ccccc34)C[C@H]2C[C@@]1(C)c1cccc(O)c1,55%
6,C[C@H]1CN2CCN(Cc3ccc(N(C)C)cc3)C[C@H]2C[C@@]1(C)c1cccc(O)c1,34%
